8 compounds from article PMC11865577 (2024) can be followed below.

Test [1] has as its system hsa-mir-6850 (RNA, G4) AGCCGGGGCGGGAGGGGAAGGGACGCCCGGCU
Description: fluorescence titration. To be noted: 20 mM NaCl, 80 mM KCl, apparent.

The test system of test [2] is hsa-mir-191 (RNA, miRNA) AGCCAGCUGUUGUCUCCAGAGCAUUCCAGCUGGCU
Kind of test: fluorescence titration. The following applies: 20 mM NaCl, 80 mM KCl, phosphate pH 7.0, apparent.

Test [3] deals with hsa-mir-21 (RNA, miRNA) AGCGUUGACUGUUGAAUCUCAUGGCAACGCU
Kind of test: fluorescence titration. The following applies: 20 mM NaCl, 80 mM KCl, phosphate pH 7.0, apparent.

For test [4], the system named is hsa-mir-221 (RNA, miRNA) AGCAGAUUUCUGUGUUCGUUAGGCAACAGCUGCU
Kind of test: fluorescence titration. To be noted: 20 mM NaCl, 80 mM KCl, phosphate pH 7.0, apparent.

The test system of test [5] is hsa-mir-374a (RNA, miRNA) AGCUAAGUGUUAUAGCACUUAGCU
Description: fluorescence titration. To be noted: 20 mM NaCl, 80 mM KCl, phosphate pH 7.0, apparent.

The test system of test [6] is hsa-mir-4437 (RNA, miRNA) AGCUCCACAAGGAGGGGAUGACCCUUGUGGGGCU
Description: fluorescence titration. To be noted: 20 mM NaCl, 80 mM KCl; 20 mM phosphate pH 7.0, 1% DMSO, 20 °C; apparent.

For test [7], the system named is hsa-mir-4520-1 loop (RNA, miRNA) AGCCCAAAUCAGAAAAGGAUUUGGGCU
Kind of test: fluorescence titration. The following applies: 20 mM NaCl, 80 mM KCl; 20 mM phosphate pH 7.0, 1% DMSO, 20 °C; apparent.

Test [8] relates to hsa-mir-4520-1-mutG2A (RNA, miRNA) AGCCCAAAUCAAAAAAGGAUUUGGGCU
Description: fluorescence titration. To be noted: 20 mM NaCl, 80 mM KCl; 20 mM phosphate pH 7.0, 1% DMSO, 20 °C; apparent.

The subject of test [9] is hsa-mir-4520-1-mutG7A (RNA, miRNA) AGCCCAAAUCAGAAAAAGAUUUGGGCU
Kind of test: fluorescence titration. The following applies: 20 mM NaCl, 80 mM KCl; 20 mM phosphate pH 7.0, 1% DMSO, 20 °C; apparent.

For test [10], the system named is hsa-mir-4520-1 mutG2,7A (RNA, miRNA) AGCCCAAAUCAAAAAAAGAUUUGGGCU
Description: fluorescence titration. The following applies: 20 mM NaCl, 80 mM KCl; 20 mM phosphate pH 7.0, 1% DMSO, 20 °C; apparent.

In test [11] the test system is hsa-mir-6847 (RNA, miRNA) AGCGAGCUGGAAGGAGUGGGCCUGGCUCGCU
Kind of test: fluorescence titration. To be noted: 20 mM NaCl, 80 mM KCl; 20 mM phosphate pH 7.0, 1% DMSO, 20 °C; apparent.

Test [12] relates to G4_(GGGU)6 (RNA, G4) AGCGGGUGGGUGGGUGGGUGGGUGGGUGCU
Description: fluorescence titration. The following applies: 20 mM NaCl, 80 mM KCl; 20 mM phosphate pH 7.0, 1% DMSO, 20 °C; apparent.

Test [13] concerns hsa-mir-4773-1 (RNA, miRNA) AGCUCUGCUUUAUUUCAUCAAAGCAGAGCU
Kind of test: fluorescence titration. The following applies: 20 mM NaCl, 80 mM KCl; 20 mM phosphate pH 7.0, 1% DMSO, 20 °C; apparent.

Test [14] relates to common stem sequence with four Us in the terminal loop (RNA, hairpin) GUGUACGAAGUUUCAGCUUUUGCUGAAGCUUCGUGCAC
Description: fluorescence titration. The following applies: 20 mM NaCl, 80 mM KCl; 20 mM phosphate pH 7.0, 1% DMSO, 20 °C; apparent.

Test [15] deals with mutG7A (biotinylated) (RNA, miRNA) AGCCCAAAUCAGAAAAAGAUUUGGGCU
Description: SPR, multi-cycle, 1:1 fit. The following applies: 20 mM NaCl, 80 mM KCl; 20 mM phosphate pH 7.0, 1% DMSO, 25 °C; up to 50 μM; apparent. (In general: In SPR one partner is held on a chip, and binding of the other changes the refractive index at the surface.)

Test [16] relates to hsa-mir-4520-1 loop (biotinylated) (RNA, miRNA) AGCCCAAAUCAGAAAAGGAUUUGGGCU
Kind of test: SPR, single-cycle kinetics. The following applies: 20 mM NaCl, 80 mM KCl; 20 mM phosphate pH 7.0, 25 °C; apparent.

The subject of test [17] is mutG2A (biotinylated) (RNA, miRNA) AGCCCAAAUCAAAAAAGGAUUUGGGCU
Kind of test: SPR, single-cycle kinetics. The following applies: 20 mM NaCl, 80 mM KCl; 20 mM phosphate pH 7.0, 25 °C; apparent.

The mark [18] stands for this setting: 20 mM phosphate pH 7.0, 1% DMSO, 20 °C, 0.1 μM compound.
The mark [19] stands for this setting: 1 μM compound, range 2.6-16 μM for all RNAs.

On to `CN1C(=CC=Cc2cc[n+](CCC[N+](C)(C)C)c3ccccc23)Sc2ccccc21`, for which the KDapp in test [1] (setting [18]) was found to be 0.19 µM.

As to `COc1ccc2c(c[n+](C)c3c4cc5c(cc4ccc23)OCO5)c1OC`, the KDapp in [1] (phosphate pH 7.0, 1 μM compound, range 2.6-16 μM for all RNAs) was 4.0 ± 0.5 µM; in [2] (setting [19]), 3.8 ± 0.5 µM; in test [3] (setting [19]), 2.6 ± 0.6 µM; in test [4] (setting [19]), 3.8 ± 0.3 µM; in test [5] (setting [19]) it was 12 ± 1 µM.

Consider `C[n+]1c(C=C2C=CN(CCC[N+](C)(C)C)c3ccccc32)sc2ccccc21`, for which the KDapp in test [1] (setting [18]) turned out to be 0.20 µM.

Consider `C[n+]1ccc(C=C2Sc3ccccc3N2CCCCC(=O)NCCOCCOCCOCCN=[N+]=[N-])c2ccccc21`, for which the KDapp in test [6] stood at 4.4 µM.

Regarding `N#CC(c1ccnc(OCc2ccc(CN3CCOCC3)cc2)n1)c1nc2ccccc2s1` (stereo not shown), the KDapp in test [1] (phosphate pH 7.0, 1 μM compound) is 4.5 µM; in [2] (1 μM compound) it was 14 µM; in test [3] (1 μM compound), 20 µM.

Take `O=c1c(O)c(-c2cc(O)c(O)c(O)c2)oc2cc(O)cc(O)c12`: the KDapp in test [1] (phosphate pH 7.0) is 3.3 ± 0.1 µM; in test [2] (range 16-25 μM for target RNAs), 25 ± 3 µM; in test [3] (range 16-25 μM for target RNAs), 16 ± 0.5 µM; in test [4] (range 16-25 μM for target RNAs) it was 20 ± 2 µM; in test [5] (0-40 μM RNA, low-rank RNA), > 40 µM.

For `O=c1cc(-c2ccccc2)oc2cc(O)c(O)c(O)c12`, the KDapp in [2] (0-40 μM RNA), in test [3] (0-40 μM RNA) and in test [4] (0-40 μM RNA) was > 40 µM each time.

`[N-]=[N+]=NCCOCCOCCOCCNC(=O)Cn1cc2c(nc1=O)Nc1c(OCCN)cccc1O2`: the KDapp in test [7] came out at 0.024 µM; in [8], 0.011 µM; in test [9] it was 15 µM; in test [10], 3.7 µM; in test [11], 0.022 µM; in [1] (20 mM phosphate pH 7.0, 1% DMSO, 20 °C), 0.19 µM. The KDapp is 0.15 µM in test [12]; > 20 µM in test [13]; 9 µM in test [14]; > 50 µM in test [15]; 0.10 ± 0.02 µM in [16]; 0.044 ± 0.008 µM in [17].
